Measurements as given in patent US20060084135A1, “Compositions for manipulating the lifespan and stress response of cells and organisms” (priority 2003, published 2006).

Experiments:
[1] = target: T1, recombinant human SIRT1 (Homo sapiens, UniProt Q96EB6); assay: SIRT1 fluorescent deacetylation assay (p53-382 acetylated peptide substrate); format: biochemical; details: 25 μM NAD+, 25 μM p53-382 acetylated peptide
T1 sequence (Q96EB6 1-747): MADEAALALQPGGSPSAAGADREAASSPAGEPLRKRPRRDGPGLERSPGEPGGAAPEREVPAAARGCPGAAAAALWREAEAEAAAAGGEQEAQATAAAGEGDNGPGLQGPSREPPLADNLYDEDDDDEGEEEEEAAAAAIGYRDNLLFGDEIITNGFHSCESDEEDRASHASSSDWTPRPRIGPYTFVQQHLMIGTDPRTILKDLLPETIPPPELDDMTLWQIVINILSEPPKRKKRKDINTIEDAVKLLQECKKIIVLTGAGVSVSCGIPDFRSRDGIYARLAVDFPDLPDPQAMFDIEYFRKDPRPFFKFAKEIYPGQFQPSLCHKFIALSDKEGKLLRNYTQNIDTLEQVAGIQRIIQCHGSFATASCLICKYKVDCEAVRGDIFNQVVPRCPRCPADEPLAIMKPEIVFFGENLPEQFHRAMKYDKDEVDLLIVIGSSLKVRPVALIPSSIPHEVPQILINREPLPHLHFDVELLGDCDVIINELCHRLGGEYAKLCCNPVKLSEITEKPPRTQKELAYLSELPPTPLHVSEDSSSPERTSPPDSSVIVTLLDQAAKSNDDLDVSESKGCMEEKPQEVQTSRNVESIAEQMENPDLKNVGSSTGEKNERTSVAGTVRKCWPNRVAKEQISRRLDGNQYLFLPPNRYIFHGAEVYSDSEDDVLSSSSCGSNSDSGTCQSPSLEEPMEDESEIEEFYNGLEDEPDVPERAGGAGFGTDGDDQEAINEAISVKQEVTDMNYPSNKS

[2] = test system: HeLa S3 cells; assay: Cellular deacetylase assay with Fluor de Lys substrate; format: cell-based, human; details: 1 μM TSA
Experimental: FdL (200 μM) is added to growth media and cells are incubated for 1-3 hours to allow FdL to enter the cells and the lysine-deacetylated product (deAc-FdL) to accumulate intracellularly. Cells are lysed with detergent in the presence of 1 μM TSA and 1 mM nicotinamide. Addition of the non-cell-permeable Developer (BIOMOL) releases a fluorophor, specifically from deAc-FdL. […] Cells were grown adherently in DMEM/10% FCS and treated for 1 hour with 200 μM FdL, 1 μM TSA and either vehicle (0.5% final DMSO, Control) or 500 μM of the indicated compound. Intracellular accumulation of deAc-FdL was then determined as described briefly in FIG. 4a. […] Lysates were prepared and analyzed by Western blot as in FIG. 4c. […] Lysates were prepared and analyzed as above.
FIG. 6a through 6c show intracellular deacetylation activity measured with a cell-permeable, fluorogenic HDAC and sirtuin substrate. […] Intracellular and medium levels of deacetylated substrate (deAc-FdL) were determined according to the manufacturer's instructions (HDAC assay kit, BIOMOL). […]
Themed compound libraries (BIOMOL) were used for primary and secondary screening. […] HeLa cells were grown and the cellular deacetylation assays were performed and read, as above, but in full-volume 96-well microplates (Corning Costar 3595). […]

[3] = test system: S. cerevisiae; assay: Yeast replicative lifespan; format: cell-based; details: 10 μM, wild type
Experimental: Average lifespan was determined for wild type untreated (□), quercetin (◯) and piceatannol (●).

Row | Ratio to Control Rate Mean ± SE ([1]; Supplementary Table 1, stilbenes and chalcones, 100 μM) | Ratio to Control Rate Mean ± SE ([1]; Table 1, 100 μM compound) | Compound | TSA-insensitive cellular deacetylation signal ([2]; 500 μM compound, 200 μM FdL, 1 hour) | Effect on maximum lifespan [3] | Increase of average lifespan [3] | Signal insensitive to trichostatin A ([2]; HeLa cells growing adherently)
1 | 8.53 ± 0.89 | 8.53 ± 0.89 | O=C(/C=C/c1ccc(O)c(O)c1)c1ccc(O)cc1O [Butein, 3,4,2′,4′-Tetrahydroxychalcone] | no effect | significantly increased | 31% | 
2 |  |  | CC(/C=C/C(=O)NO)=C\[C@@H](C)C(=O)c1ccc(N(C)C)cc1 [trichostatin A, reference compound] |  |  |  | 5-10%
